Source: patent US20230031406A1, “COMPOUNDS AND COMPOSITIONS FOR TREATING CONDITIONS ASSOCIATED WITH NLRP ACTIVITY” (Novartis AG, priority 2018, published 2023)
Where two headings read alike, the source gives them in different places. Values belong to the compound of their own block, whether it stands above or below them.

Test system: PMA-differentiated THP-1 cells
Test: IL-1β production in PMA-differentiated THP-1 cells stimulated with gramicidin (hTHP-1 assay containing 2% fetal bovine serum; Procedures 1 and 2)
Assay type: cell-based, human
Conditions: 2% fetal bovine serum
Summary of the method: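 IL-1β release from PMA-differentiated THP-1 macrophage-like cells was triggered by 5 μM gramicidin for 2 h after 1 h compound exposure, then measured by HTRF.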

[1] = Homo sapiens, THP-1, Table B2, class symbols, read-out: hTHP-1 IC50
[2] = Table B2, class symbols, read-out: hTHP-1 IC50
[3] = Table B3, hTHP-1 assay, class symbols, read-out: IC50
[4] = Homo sapiens, THP-1, Table B3, hTHP-1 assay, class symbols, read-out: IC50
[5] = Table B1, class symbols, read-out: Average IC50 of compounds in hTHP-1 assay: hTHP-1 IC50
[6] = Table B4, class symbols, read-out: hTHP-1 IC50
[7] = Homo sapiens, THP-1, Table B1, class symbols, read-out: Average IC50 of compounds in hTHP-1 assay: hTHP-1 IC50

SMILES: NS(=O)(=NC(=O)Nc1c2c(nc3c1CCC31CC1)CCC2)c1nn(C(F)F)cc1F (single isomer, unassigned) [Example 682, (S) or (R)-1-(difluoromethyl)-4-fluoro-N′-((1′,5′,6′,7′-tetrahydro-2′H-spiro[cyclopropane-1,3′-dicyclopenta[b,e]pyridin]-8′-yl)carbamoyl)-1H-pyrazole-3-sulfonimidamide]
IC50 [3]: 1 to 5 µM

SMILES: CCn1nc(S(N)(=O)=NC(=O)Nc2c(C)c(C(F)(F)F)nc3c2CCC3)cc1CO (stereo not drawn) [Example 588, 1-Ethyl-5-(hydroxymethyl)-N′-((3-methyl-2-(trifluoromethyl)-6,7-dihydro-5H-cyclopenta[b]pyridin-4-yl)calbamoyl)-1H-pyrazole-3-sulfonimidamide]
IC50 [4]: 1 to 5 µM

SMILES: Cc1c(C(F)(F)F)nc2c(c1NC(=O)N=S(N)(=O)c1cnc(C(C)(C)O)s1)CCC2C (single isomer, unassigned) [Example 706, (R, R) or (R, S)-N′-((3,7-dimethyl-2-(trifluoromethyl)-6,7-dihydro-5H-cyclopenta[b]pyridin-4-yl)carbamoyl)-2-(2-hydroxypropan-2-yl)thiazole-5-sulfonimidamide]
IC50 [3]: 0.2 to 1 µM

SMILES: Cc1c(C2(F)CC2)nc2c(c1NC(=O)N=S(N)(=O)c1cc(C(C)(C)O)cs1)CCC2 (stereo not drawn) [Example 611, N′-((2-(1-fluorocyclopropyl)-3-methyl-6,7-dihydro-5H-cyclopenta[b]pyridin-4-yl)carbamoyl)-4-(2-hydroxypropan-2-yl)thiophene-2-sulfonimidamide]
IC50 [4]: 1 to 5 µM

SMILES: NS(=O)(=NC(=O)Nc1c2c(nc(C(F)(F)F)c1-c1ccccc1)CCC2)c1nn(C(F)F)cc1F (single isomer, unassigned) [Example 766, (S) or (R)-1-(difluoromethyl)-4-fluoro-N′-((3-phenyl-2-(trifluoromethyl)-6,7-dihydro-5H-cyclopenta[b]pyridin-4-yl)carbamoyl)-1H-pyrazole-3-sulfonimidamide]
IC50 [6]: 1 to 5 µM

SMILES: CCc1c(C(F)(F)F)nc2c(c1NC(=O)N=S(N)(=O)c1cnc(C(C)(C)O)s1)CCC2 (stereo not drawn) [Compound 610, N′-((3-ethyl-2-(trifluoromethyl)-6,7-dihydro-5H-cyclopenta[b]pyridin-4-yl)carbamoyl)-2-(2-hydroxypropan-2-yl)thiazole-5-sulfonimidamide]
IC50 [1]: 5 to 30 µM

SMILES: CC(C)(O)c1ncc(S(N)(=O)=NC(=O)Nc2c3c(nc4c2CCC4=O)CCC3)s1 (stereo not drawn) [compound 593, 2-(2-Hydroxypropan-2-yl)-N′-((3-oxo-1,2,3,5,6,7-hexahydrodicyclopenta[b,e]pyridin-8-yl)carbamoyl)thiazole-5-sulfonimidamide]
IC50 (Homo sapiens, THP-1, Table B3, hTHP-1 assay, numeric values, read-out: IC50): > 30 µM

SMILES: CCn1cc(F)c(S(N)(=O)=NC(=O)Nc2c(C)c(C3CC3)nc3c2CCC3)n1 (stereo not drawn) [Example 637, N′-((2-cyclopropyl-3-methyl-6,7-dihydro-5H-cyclopenta[b]pyridin-4-yl)carbamoyl)-1-ethyl-4-fluoro-1H-pyrazole-3-sulfonimidamide]
IC50 [4]: 0.2 to 1 µM

SMILES: NS(=O)(=NC(=O)Nc1c2c(nc(C3CC3)c1C1CC1)CCC2)c1ccn(C(F)F)n1 (stereo not drawn) [Compound 728]
IC50 [1]: 1 to 5 µM

SMILES: NS(=O)(=NC(=O)Nc1c2c(nc3c1CCC31CC1)CCC2)c1nn(C(F)F)cc1F (stereo not drawn) [Compound 719]
IC50 [1]: 0.2 to 1 µM

SMILES: CC(C)(O)c1cc(C#N)cc(S(N)(=O)=NC(=O)Nc2c3c(nc4c2CCC4(C)C)CCC3)c1 (stereo not drawn) [Compound 674, 3-Cyano-N′-((3,3-dimethyl-1,2,3,5,6,7-hexahydrodicyclopenta[b,e]pyridin-8-yl)carbamoyl)-5-(2-hydroxypropan-2-yl)benzenesulfonimidamide]
IC50 [1]: 1 to 5 µM

SMILES: Cc1sc(S(N)(=O)=NC(=O)Nc2c3c(nc4c2CCC4C)CCC3)nc1C(C)(C)O (stereo not drawn) [Compound 104, 4-(2-Hydroxypropan-2-yl)-5-methyl-N′-((3-methyl-1,2,3,5,6,7-hexahydrodicyclopenta[b,e]pyridin-8-yl)carbamoyl)thiazole-2-sulfonimidamide]
IC50 [5]: 0.2 to 1 µM

SMILES: C[C@@](O)(CO)c1cc(F)c([S@](N)(=O)=NC(=O)Nc2c3c(nc4c2CCC42CC2)CCC3)s1 [Example 676, (R)-5-((R)-1,2-dihydroxypropan-2-yl)-3-fluoro-N′-((1′,5′,6′,7′-tetrahydro-2′H-spiro[cyclopropane-1,3′-dicyclopenta[b,e]pyridin]-8′-yl)carbamoyl)thiophene-2-sulfonimidamide]
IC50 [4]: 0.2 to 1 µM

SMILES: CC(C)(O)c1nc(CO)c(S(N)(=O)=NC(=O)Nc2c3c(nc4c2CCC4)CCC3)s1 (stereo not drawn) [Compound 150, N′-((1,2,3,5,6,7-hexahydrodicyclopenta[b,e]pyridin-8-yl)carbamoyl)-4-(hydroxymethyl)-2-(2-hydroxypropan-2-yl)thiazole-3-sulfonimidamide]
IC50 [7]: 1 to 5 µM

SMILES: CN(C)Cc1ccc(S(N)(=O)=NC(=O)Nc2c3c(nc4c2CCC4(C)C)CCC3)cc1 (stereo not drawn) [Compound 125, N′-((3,3-dimethyl-1,2,3,5,6,7-hexahydrodicyclopenta[b,e]pyridin-8-yl)carbamoyl)-4-((dimethylamino)methyl)benzenesulfonimidamide]
IC50 [7]: 1 to 5 µM

SMILES: CCn1cc(F)c(S(N)(=O)=NC(=O)Nc2c3c(nc(C(F)(F)F)c2-c2ccccc2)CCC3)n1 (single isomer, unassigned) [Example 768, (S) or (R)-1-ethyl-4-fluoro-N′-((3-phenyl-2-(trifluoromethyl)-6,7-dihydro-5H-cyclopenta[b]pyridin-4-yl)carbamoyl)-1H-pyrazole-3-sulfonimidamide]
IC50 [6]: 0.2 to 1 µM

SMILES: Cc1c(CC(F)(F)F)nc2c(c1NC(=O)N=S(N)(=O)c1nn(C(F)F)cc1F)CCC2 (stereo not drawn) [Example 617, 1-(Difluoromethyl)-4-fluoro-N′-((3-methyl-2-(2,2,2-trifluoroethyl)-6,7-dihydro-5H-cyclopenta[b]pyridin-4-yl)carbamoyl)-1H-pyrazole-3-sulfonimidamide]
IC50 [4]: 5 to 30 µM

SMILES: CC1(C)CCc2c1nc1c(c2NC(=O)N=S(N)(=O)c2sc(C(O)(CO)CO)nc2CO)CCC1 (single isomer, unassigned) [Example 778, (S) or (R)-N′-((3,3-dimethyl-1,2,3,5,6,7-hexahydrodicyclopenta [b,e]pyridin-8-yl)carbamoyl)-4-(hydroxymethyl)-2-(1,2,3-trihydroxypropan-2-yl)-thiazole-5-sulfonimidamide]
IC50 [6]: 1 to 5 µM

SMILES: C[C@@H]1CCc2c1nc1c(c2NC(=O)N=S(N)(=O)c2cnc([C@@](C)(O)CO)s2)CCC1 (single isomer, unassigned) [Example 730]
IC50 (Homo sapiens, THP-1, Table B4, class symbols, read-out: hTHP-1 IC50): 0.2 to 1 µM

Continued, values first:

IC50 [1]: 0.2 to 1 µM
SMILES: C[C@@H]1CCc2c1nc1c(c2NC(=O)N=S(N)(=O)c2ncc(C(C)(C)O)s2)CCC1 (stereo partly drawn) [Compound 140c, 5-(2-Hydroxypropan-2-yl)-N′-(((R)-3-methyl-1,2,3,5,6,7-hexahydrodicyclopenta[b,e]pyridin-8-yl)carbamoyl)thiazole-2-sulfonimidamide]

IC50 [2]: 1 to 5 µM
SMILES: CCC1CCc2c1nc1c(c2NC(=O)N=S(N)(=O)c2cnc(C(C)(C)O)s2)CCC1 (stereo not drawn) [Compound 662e]

IC50 [5]: 5 to 30 µM
SMILES: CC(C)(O)c1ncc(S(N)(=O)=NC(=O)Nc2c3c(nc4c2CCC4F)CCC3)s1 (single isomer, unassigned) [Compound 183c, (R,S) or (R,R)-N′-((3-fluoro-1,2,3,5,6,7-hexahydrodicyclo-penta[b,e]pyridin-8-yl)carbamoyl)-2-(2-hydroxypropan-2-yl)thiazole-5-sulfonimidamide]

IC50 [2]: 0.04 to 0.2 µM
SMILES: CC1(C)CCc2c1nc1c(c2NC(=O)N=S(N)(=O)c2sc(C(C)(O)CO)cc2F)CCC1 (single isomer, unassigned) [Compound 640b, (S, R) and (R, R) or (R, S) and (S, S)-5-(1,2-Dihydroxypropan-2-yl)-N′-((3,3-dimethyl-1,2,3,5,6,7-hexahydrodicyclopenta [b,e]pyridin-8-yl)carbamoyl)-3-fluorotliophene-2-sulfonimidamide]

IC50 [1]: 5 to 30 µM
SMILES: CCC1CCc2c1nc1c(c2NC(=O)N=S(N)(=O)c2ccn(C(F)F)n2)CCC1 (single isomer, unassigned) [Compound 668b, (R, R) or (R, S) or (S, R) or (S, S)-1-(Difluoromethyl)-N′-((3-ethyl-1,2,3,5,6,7-hexahydrodicyclopenta [b,e]pyridin-8-yl)carbamoyl)-1H-pyrazole-3-sulfonimidamide]

IC50 (Homo sapiens, THP-1, Table B1, numeric bounds, read-out: Average IC50 of compounds in hTHP-1 assay: hTHP-1 IC50): > 30 µM
SMILES: Cc1nc2c(c(NC(=O)N=S(N)(=O)c3cnc(C(C)(C)O)s3)c1C(C)C)CCC2 (single isomer, unassigned) [Compound 116a, (S) or (R)-2-(2-hydroxypropan-2-yl)-N′-((3-isopropyl-2-methyl-6,7-dihydro-5H-cyclopenta[b]pyridin-4-yl)carbamoyl)thiazole-5-sulfonimidamide]

IC50 [5]: 5 to 30 µM
SMILES: CC1CCc2c1nc1c(c2NC(=O)N=S(N)(=O)c2sc(C(C)(C)O)nc2CO)CCC1 (single isomer, unassigned) [Compound 168aa, (S,S) or (S,R)-4-(hydroxymethyl)-2-(2-hydroxypropan-2-yl)-N′-((3-methyl-1,2,3,5,6,7-hexahydrodicyclo-penta[b,e]pyridin-8-yl)carbamoyl)thiazole-5-sulfonimidamide]

IC50 [2]: 5 to 30 µM
SMILES: CC(C)(O)c1csc(S(N)(=O)=NC(=O)Nc2c3c(nc(C4CC4)c2C2CC2)CCC3)c1 (single isomer, unassigned) [Compound 670a, (S) or (R)-N′-((2,3-dicyclopropyl-6,7-dihydro-5H-cyclopenta[b]pyridin-4-yl)carbamoyl)-4-(2-hydroxypropan-2-yl)thiophene-2-sulfonimidamide]
